Among the data in ChEMBL document CHEMBL1152939, “p-Terphenyls from the fruiting bodies of Paxillus curtisii and their antioxidant properties” (Bioorg Med Chem, 2009) are IC50 and Activity values, retold here.

Molecules are shown by their SMILES. Calls of active or inactive are those of the source. The calls are words filed in the database; no cut-off is given here. Where only a bound is given, the exact number is not on record here.

In assay [1] the test system is Radical scavenging activity. Put plainly: Antioxidant activity assessed as DPPH radical scavenging activity after 30 mins. The class given is functional. (In general: The DPPH test is a chemical assay of radical scavenging.)
The nature of assay [2]: Antioxidant activity assessed as ABTS radical scavenging activity after 6 mins by cation decolorization assay. Format: functional.
The test system of the next assay is Nucleic Acid. Put plainly: Protection against ferrous and hydrogen peroxide-induced single strand breakage of pBR322 DNA at 50 uM after 30 mins using ethium bromide staining. As to conditions: Escherichia coli.
Assay [3] in a line: Antioxidant activity assessed as superoxide radical anion scavenging activity after 30 mins by xanthine/xanthine oxidase method. The class given is functional.
Assay [4] in a line: Antioxidant activity against ferrous and hydrogen peroxide-induced hydroxyl radical assessed inhibition of radical-mediated 2-deoxyribose damage at 100 uM after 45 mins. The class given is functional.

As a reminder, the IC50 is the concentration that inhibits the measured activity by half. As to `CC(=O)Oc1c(O)c(-c2ccc(O)cc2)c(OC(C)=O)c(O)c1-c1ccc(O)cc1`, the 50% inhibitory concentration (IC50) in assay [1] was > 500 µM; in assay [2] it was 8.77 µM; in assay [3], > 500 µM. The result (in the assay on Nucleic Acid; in assay [4]) was Active.

As for `CC(=O)N(O)CCCCCNC(=O)CCC(=O)N(O)CCCCCNC(=O)CCC(=O)N(O)CCCCCN`, the outcome with Nucleic Acid was Active.

For the compound `COc1ccc(O)c(C(C)(C)C)c1.COc1ccc(O)cc1C(C)(C)C` [BUTYLATED HYDROXYANISOLE], the half-inhibitory concentration (IC50) in assay [1] is 83 µM; in assay [2], 10.7 µM; in assay [3], > 500 µM. Further, the outcome in the assay with Nucleic Acid was inactive.

As to `O=C(O)/C=C/c1ccc(O)c(O)c1` [CAFFEIC ACID], the IC50 in assay [1] stood at 21.1 µM; in assay [2], 5.37 µM; in assay [3] it was 58 µM.

`CC(=O)Oc1c(OC(=O)C[C@@H](C)O)c(-c2ccc(O)cc2)c(OC(=O)CCc2ccccc2)c(OC(=O)C[C@@H](C)O)c1-c1ccc(O)cc1` [CURTISIAN E]: the 50% inhibitory concentration (IC50) in assay [1], in assay [2] and in assay [3] was > 500 µM each time. For the same compound, the outcome (in the assay on Nucleic Acid; in assay [4]) was Active.

For the compound `CC(=O)O[C@H](C)CC(=O)Oc1c(O)c(-c2ccc(O)cc2)c(OC(=O)C[C@@H](C)O)c(O)c1-c1ccc(O)cc1` [CURTISIAN I], the concentration for half-maximal inhibition (IC50) in assay [1] is > 500 µM; in assay [2], 60.4 µM; in assay [3], > 500 µM. In addition, in the assay on Nucleic Acid, the outcome was Active.

As for `CC(=O)O[C@H](C)CC(=O)Oc1c(O)c(-c2ccc(O)cc2)c(OC(=O)CCc2ccccc2)c(O)c1-c1ccc(O)cc1` [CURTISIAN J], the values for the IC50 in assay [1], in assay [2] and in assay [3] were > 500 µM, 13.5 µM and > 500 µM, respectively. The result with Nucleic Acid was Active.

For the compound `C[C@@H](O)CC(=O)Oc1c(O)c(-c2ccc(O)cc2)c(OC(=O)CCc2ccccc2)c(O)c1-c1ccc(O)cc1` [CURTISIAN K], the IC50 in assay [1] is > 500 µM; in assay [2], 11.3 µM; in assay [3] it was > 500 µM. The outcome (in the assay on Nucleic Acid; in assay [4]) was Active.

Consider `CC(=O)Oc1c(O)c(-c2ccc(O)cc2)c(OC(=O)C[C@@H](C)O)c(O)c1-c1ccc(O)cc1` [CURTISIAN L], for which the IC50 is > 500 µM in assay [1], 18.6 µM in assay [2] and > 500 µM in assay [3]. The result with Nucleic Acid was Active.

`CC(=O)O[C@H](C)CC(=O)Oc1c(O)c(-c2ccc(O)cc2)c(OC(=O)C[C@@H](C)OC(C)=O)c(O)c1-c1ccc(O)cc1` [CURTISIAN M]: the values for the IC50 in assay [1], in assay [2] and in assay [3] were > 500 µM, 8.15 µM and > 500 µM, respectively. In addition, the outcome (in the assay on Nucleic Acid; in assay [4]) was Active.

On to `CC(=O)Oc1c(O)c(-c2ccc(O)cc2)c(OC(=O)C[C@@H](C)OC(C)=O)c(O)c1-c1ccc(O)cc1` [CURTISIAN N], for which the concentration for half-maximal inhibition (IC50) is > 500 µM in assay [1], 5.5 µM in assay [2] and > 500 µM in assay [3]. For the same compound, the result (in the assay on Nucleic Acid; in assay [4]) was Active.

With `CCCC(=O)Oc1c(O)c(-c2ccc(O)cc2)c(OC(C)=O)c(O)c1-c1ccc(O)cc1` [CURTISIAN O], the IC50 was > 500 µM in assay [1], 7.11 µM in assay [2] and > 500 µM in assay [3]. Moreover, the result (with Nucleic Acid; in assay [4]) was Active.

For `CC(=O)Oc1c(O)c(-c2ccc(O)cc2)c(OC(=O)CCc2ccccc2)c(O)c1-c1ccc(O)cc1` [CURTISIAN P], the IC50 was > 500 µM in assay [1], 6.44 µM in assay [2] and > 500 µM in assay [3]. The outcome with Nucleic Acid was Active.

As to `O=C(CCc1ccccc1)Oc1c(O)c(-c2ccc(O)cc2)c(OC(=O)CCc2ccccc2)c(O)c1-c1ccc(O)cc1` [CURTISIAN R], the IC50 in assay [1] is > 500 µM; in assay [2], 8.02 µM; in assay [3] it was > 500 µM. In the assay on Nucleic Acid, the result was Active.

`CCCC(=O)Oc1c(O)c(-c2ccc(O)cc2)c(OC(=O)CCc2ccccc2)c(O)c1-c1ccc(O)cc1` [CURTISIAN S]: the IC50 was > 500 µM in assay [1], 8.16 µM in assay [2] and > 500 µM in assay [3]. Moreover, in the assay on Nucleic Acid, the result was Active.

Take `CC(=O)O[C@H](C)CC(=O)Oc1c(O)c(-c2ccc(O)cc2)c(OC(=O)c2ccccc2)c(O)c1-c1ccc(O)cc1` [CURTISIAN T]: the IC50 is > 500 µM in assay [1], 8.43 µM in assay [2] and > 500 µM in assay [3]. Also, the outcome in the assay with Nucleic Acid was Active.

`CC(=O)Oc1c(OC(=O)C[C@@H](C)O)c(-c2ccc(O)cc2)c(OC(C)=O)c(OC(=O)C[C@@H](C)O)c1-c1ccc(O)cc1` [CURTISIAN U]: the 50% inhibitory concentration (IC50) in assay [1], in assay [2] and in assay [3] was > 500 µM in each case. In addition, the outcome in the assay with Nucleic Acid was Active.

With `CC(=O)Oc1c(OC(=O)CCc2ccccc2)c(-c2ccc(O)cc2)c(OC(=O)C[C@@H](C)O)c(OC(=O)C[C@@H](C)O)c1-c1ccc(O)cc1` [CURTISIAN V], the IC50 in assay [1], in assay [2] and in assay [3] was > 500 µM each time. In the assay on Nucleic Acid, the outcome was Active.

With `Cc1c(C)c2c(c(C)c1O)CCC(C)(C(=O)O)O2` (stereo not drawn) [TROLOX], the IC50 is 33 µM in assay [1], 7.91 µM in assay [2] and > 500 µM in assay [3]. For the same compound, the outcome with Nucleic Acid was Active.
